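Where inhibition never reached the appropriate level, the endpoint shown equals the highest concentration tested. Otherwise, values were interpolated linearly from a five-concentration, 48-hour dose response in 96-well plates. GI50: concentration for 50% inhibition of growth.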 Active and inactive are the calls of the source. Rule as the data show it: active = GI50 up to about 1.1 µM and inactive = higher.
Assays:
Experiment in all cases: NCI-60 cell line screen, 48 h
OVCAR-3 = tested on: OVCAR-3
A498 = tested on: A498
SNB-75 = tested on: SNB-75
RPMI-8226 = tested on: RPMI-8226
786-0 = tested on: 786-0
CAKI-1 = tested on: CAKI-1
IGROV-1 = tested on: IGROV-1
UO-31 = tested on: UO-31
NCI-H23 = tested on: NCI-H23
SF-268 = tested on: SF-268
UACC-62 = tested on: UACC-62
HT-29 = tested on: HT-29
COLO 205 = tested on: COLO 205
SN12C = tested on: SN12C
HL-60 = tested on: HL-60
OVCAR-4 = tested on: OVCAR-4
ACHN = tested on: ACHN
DU-145 = tested on: DU-145
SW-620 = tested on: SW-620
MDA-N = tested on: MDA-N
HCT-116 = tested on: HCT-116
MDA-MB-435 = tested on: MDA-MB-435
M14 = tested on: M14
SF-295 = tested on: SF-295
EKVX = tested on: EKVX
SK-MEL-5 = tested on: SK-MEL-5
MDA-MB-231 = tested on: MDA-MB-231
MOLT-4 = tested on: MOLT-4
SK-OV-3 = tested on: SK-OV-3
Hs-578T = tested on: Hs-578T
SF-539 = tested on: SF-539
SR = tested on: SR
T47D = tested on: T47D
MCF7 = tested on: MCF7
OVCAR-5 = tested on: OVCAR-5
LOX IMVI = tested on: LOX IMVI
SNB-19 = tested on: SNB-19
NCI-H226 = tested on: NCI-H226
NCI/ADR-RES = tested on: NCI/ADR-RES
TK-10 = tested on: TK-10
BT-549 = tested on: BT-549
SK-MEL-2 = tested on: SK-MEL-2
HOP-62 = tested on: HOP-62
HCT-15 = tested on: HCT-15
UACC-257 = tested on: UACC-257
NCI-H460 = tested on: NCI-H460
PC-3 = tested on: PC-3
SK-MEL-28 = tested on: SK-MEL-28
CCRF-CEM = tested on: CCRF-CEM
U-251 = tested on: U-251
A549 = tested on: A549
K562 = tested on: K562
NCI-H522 = tested on: NCI-H522
OVCAR-8 = tested on: OVCAR-8
KM12 = tested on: KM12
HOP-92 = tested on: HOP-92

With `CCNCC(O)c1ccc(N)c([N+](=O)[O-])c1` (configuration not stated) the GI50 (OVCAR-3) was > 100 µM (inactive), the GI50 (A498) was > 100 µM (inactive) and the GI50 (SNB-75) was > 100 µM (inactive). For the same compound, the GI50 (RPMI-8226) was > 100 µM (inactive), the GI50 (786-0) was > 100 µM (inactive) and the GI50 (CAKI-1) was > 100 µM (inactive). The GI50 (IGROV-1) was > 100 µM (inactive), the GI50 (UO-31) was > 100 µM (inactive) and the GI50 (NCI-H23) was > 100 µM (inactive). The GI50 (SF-268) was > 100 µM (inactive), the GI50 (UACC-62) was > 100 µM (inactive) and the GI50 (HT-29) was > 100 µM (inactive). The GI50 (COLO 205) was > 100 µM (inactive), the GI50 (SN12C) was > 100 µM (inactive) and the GI50 (HL-60) was > 100 µM (inactive). For the same compound, the GI50 (OVCAR-4) was 21.4 µM (inactive), the GI50 (ACHN) was > 100 µM (inactive) and the GI50 (DU-145) was > 100 µM (inactive). The GI50 (SW-620) was > 100 µM (inactive), the GI50 (MDA-N) was > 100 µM (inactive) and the GI50 (HCT-116) was > 100 µM (inactive). For the same compound, the GI50 (MDA-MB-435) was > 100 µM (inactive), the GI50 (M14) was > 100 µM (inactive) and the GI50 (SF-295) was > 100 µM (inactive). The GI50 (EKVX) was > 100 µM (inactive), the GI50 (SK-MEL-5) was > 100 µM (inactive) and the GI50 (MDA-MB-231) was > 100 µM (inactive). The GI50 (MOLT-4) was > 100 µM (inactive), the GI50 (SK-OV-3) was > 100 µM (inactive) and the GI50 (Hs-578T) was > 100 µM (inactive). The GI50 (SF-539) was > 100 µM (inactive), the GI50 (SR) was > 100 µM (inactive) and the GI50 (T47D) was > 100 µM (inactive). The GI50 (MCF7) was > 100 µM (inactive), the GI50 (OVCAR-5) was > 100 µM (inactive) and the GI50 (LOX IMVI) was > 100 µM (inactive). For the same compound, the GI50 (SNB-19) was > 100 µM (inactive), the GI50 (NCI-H226) was > 100 µM (inactive) and the GI50 (NCI/ADR-RES) was > 100 µM (inactive). The GI50 (TK-10) was > 100 µM (inactive), the GI50 (BT-549) was > 100 µM (inactive) and the GI50 (SK-MEL-2) was > 100 µM (inactive). The GI50 (HOP-62) was > 100 µM (inactive), the GI50 (HCT-15) was over 100 µM and the GI50 (UACC-257) was > 100 µM (inactive). For the same compound, the GI50 (NCI-H460) was > 100 µM (inactive), the GI50 (PC-3) was > 100 µM (inactive) and the GI50 (SK-MEL-28) was > 100 µM (inactive). For the same compound, the GI50 (CCRF-CEM) was > 100 µM (inactive), the GI50 (U-251) was > 100 µM (inactive) and the GI50 (A549) was > 100 µM (inactive). The GI50 (K562) was > 100 µM (inactive), the GI50 (NCI-H522) was > 100 µM (inactive) and the GI50 (OVCAR-8) was > 100 µM (inactive).
`CC1(C)CC(=O)c2c(nc3ccc4ccccc4c3c2-c2ccc(NC(=O)CCCCCCCCC(=O)Nc3ccc(-c4c5c(nc6ccc7ccccc7c46)CC(C)(C)CC5=O)cc3)cc2)C1` was tested, and the GI50 (OVCAR-3) was > 100 µM (inactive), the GI50 (A498) was > 100 µM (inactive) and the GI50 (RPMI-8226) was > 100 µM (inactive). The GI50 (786-0) was > 100 µM (inactive), the GI50 (CAKI-1) was > 100 µM (inactive) and the GI50 (IGROV-1) was > 100 µM (inactive). The GI50 (UO-31) was > 100 µM (inactive), the GI50 (NCI-H23) was > 100 µM (inactive) and the GI50 (SF-268) was > 100 µM (inactive). The GI50 (UACC-62) was > 100 µM (inactive), the GI50 (HT-29) was > 100 µM (inactive) and the GI50 (COLO 205) was > 100 µM (inactive). For the same compound, the GI50 (SN12C) was > 100 µM (inactive), the GI50 (HL-60) was > 100 µM (inactive) and the GI50 (ACHN) was > 100 µM (inactive). The GI50 (DU-145) was > 100 µM (inactive), the GI50 (SW-620) was > 100 µM (inactive) and the GI50 (MDA-N) was > 100 µM (inactive). The GI50 (HCT-116) was > 100 µM (inactive), the GI50 (MDA-MB-435) was > 100 µM (inactive) and the GI50 (M14) was > 100 µM (inactive). The GI50 (SF-295) was > 100 µM (inactive), the GI50 (EKVX) was > 100 µM (inactive) and the GI50 (SK-MEL-5) was > 100 µM (inactive). For the same compound, the GI50 (MDA-MB-231) was > 100 µM (inactive), the GI50 (MOLT-4) was > 100 µM (inactive) and the GI50 (SK-OV-3) was > 100 µM (inactive). The GI50 (Hs-578T) was > 100 µM (inactive), the GI50 (SF-539) was > 100 µM (inactive) and the GI50 (SR) was > 100 µM (inactive). The GI50 (T47D) was > 100 µM (inactive), the GI50 (MCF7) was > 100 µM (inactive) and the GI50 (OVCAR-5) was > 100 µM (inactive). The GI50 (KM12) was > 100 µM (inactive), the GI50 (LOX IMVI) was > 100 µM (inactive) and the GI50 (SNB-19) was > 100 µM (inactive). The GI50 (NCI-H226) was > 100 µM (inactive), the GI50 (NCI/ADR-RES) was > 100 µM (inactive) and the GI50 (TK-10) was > 100 µM (inactive). The GI50 (BT-549) was > 100 µM (inactive), the GI50 (SK-MEL-2) was > 100 µM (inactive) and the GI50 (HOP-62) was > 100 µM (inactive). For the same compound, the GI50 (HCT-15) was over 100 µM, the GI50 (UACC-257) was > 100 µM (inactive) and the GI50 (NCI-H460) was > 100 µM (inactive). The GI50 (PC-3) was > 100 µM (inactive), the GI50 (SK-MEL-28) was > 100 µM (inactive) and the GI50 (CCRF-CEM) was > 100 µM (inactive). The GI50 (U-251) was > 100 µM (inactive), the GI50 (A549) was > 100 µM (inactive) and the GI50 (K562) was > 100 µM (inactive). For the same compound, the GI50 (HOP-92) was > 100 µM (inactive) and the GI50 (OVCAR-8) was > 100 µM (inactive).

— ChEMBL document CHEMBL1201862, “PubChem BioAssay data set” (2004)
